Reference: patent US20240174649A1, “CULLIN-RING E3 UBIQUITIN LIGASE 4 INHIBITOR COMPOUNDS AND METHODS OF THEIR USE” (ICAHN SCHOOL OF MEDICINE AT MOUNT SINAI, priority 2021, published 2024)
Where two headings read alike, the source gives them in different places.

Experiments:
[1] = target: T1, ROC1-CUL1 CTD (Homo sapiens (Human), UniProt Q13616); assay: FRET K48 di-Ub synthesis assay; type: biochemical; conditions: for E3 inhibition: up to 80 μM
Method: The high throughput screen (“HTS”) employed the FRET K48 di-Ub assay as established previously (Wu et al., “Suramin Inhibits Cullin-RING E3 Ubiquitin Ligases,” PNAS 113(14):E2011-2018 (2016), which is hereby incorporated by reference in its entirety) and was carried out at Memorial Sloan Kettering Cancer Center Core Screening Facility. For HTS, the assay was formatted using three reagent addition steps. Library compounds, stored in 10 mM stock plates (DMSO), were transferred into assay plates and each well contains a single compound at 100 μM in 1 μl 10% DMSO. The complete complement of proteins/enzymes (6.5 μl), containing Ub E1 (14 nM), E2 Cdc34 (124 nM), E3 ROC1-CUL1 CTD (0.2 μM), Ub C31-I555 (donor, 0.93 μM), and Ub C64-I647 (receptor, 1.62 μM), in the presence of 33 mM Tris-HCl (pH 7.4), 1.7 mM MgCl2, 0.33 mM DTT, and BSA (0.07 mg/ml), was added to each plate. The concentrations of all five proteins have been determined based on Km measurement as described previously (Wu et al., “Suramin Inhibits Cullin-RING E3 Ubiquitin Ligases,” PNAS 113(14):E2011-2018 (2016), which is hereby incorporated by reference in its entirety). To initiate ubiquitination, ATP (2.5 μl in 2.64 mM) was added and its final concentration was 0.66 mM. The concentration of ATP was set high to minimize identification of nucleotide analogues because the priority of the HTS is to find small molecule modulators specific for E3 ROC1-CUL1 CTD. In this setting, the concentration of compound and DMSO in a given well were 10 μM and 1%, respectively. After incubation at room temperature for 45 min, EDTA (30 mM) was added to terminate the reaction. The reaction was quantified based on the ratio of acceptor:donor fluorescence (excitation 515 nm; donor emission 570 nm; acceptor emission 670 nm) using a Victor high-throughput plate reader (Perkin Elmer).
(§1) The reaction mixture (15 μl) was assembled onto a 384-well microtiter plate. […] ATP (0.66 mM) was then added to the mix followed by a brief centrifugation to settle down the mixture. The resulting plate was incubated at 30° C. in the Synergy-H1 reader and the fluorescence signal was monitored. Ubiquitination was quantified based on the ratio of acceptor:donor fluorescence (excitation 515 nm; donor emission 570 nm, acceptor emission 670 nm).

[2] = target: T1, ROC1-CUL1 CTD; assay: Ligand binding by MST
Method: (§2) E3 ligase complex (˜2 nmol) was labeled with fluorescent dye using Monolith NT Protein Labeling Kit Red-NHS (Nanotemper) in the presence of 20 mM MES pH 6.0 and 150 mM NaCl. Excess dye was removed using the included gravity flow column and eluted in storage buffer containing 20 mM Tris-HCl, pH 7.4, 150 mM NaCl, and 10% glycerol. The fluorescent E3 complex (˜0.01-0.06 μM) was mixed with increasing amount of compound in a buffer (20 μl) that contains phosphate-buffered saline, 0.1% TWEEN-20 and 2% prionex. Following incubation at room temperature for 30 min, the reaction mixture loaded into premium coated capillaries and analyzed in the Monolith NT.115 machine (Nanotemper). Thermophoresis was recorded for each sample and binding curve was generated and Kd was calculated using the included software. For reactions where significant ligand specific fluorescence quenching occurred (verified by manufacturer's SDS Denaturation-test protocol), the initial fluorescence quenching data was used directly to calculate the binding curve and Kd.

[3] = target: E3 (CUL4) (Homo sapiens (Human), UniProt Q13619); assay: E3 (CUL4) inhibition (Table 1); type: biochemical
E3 (CUL4), sequence (Q13619 whole entry): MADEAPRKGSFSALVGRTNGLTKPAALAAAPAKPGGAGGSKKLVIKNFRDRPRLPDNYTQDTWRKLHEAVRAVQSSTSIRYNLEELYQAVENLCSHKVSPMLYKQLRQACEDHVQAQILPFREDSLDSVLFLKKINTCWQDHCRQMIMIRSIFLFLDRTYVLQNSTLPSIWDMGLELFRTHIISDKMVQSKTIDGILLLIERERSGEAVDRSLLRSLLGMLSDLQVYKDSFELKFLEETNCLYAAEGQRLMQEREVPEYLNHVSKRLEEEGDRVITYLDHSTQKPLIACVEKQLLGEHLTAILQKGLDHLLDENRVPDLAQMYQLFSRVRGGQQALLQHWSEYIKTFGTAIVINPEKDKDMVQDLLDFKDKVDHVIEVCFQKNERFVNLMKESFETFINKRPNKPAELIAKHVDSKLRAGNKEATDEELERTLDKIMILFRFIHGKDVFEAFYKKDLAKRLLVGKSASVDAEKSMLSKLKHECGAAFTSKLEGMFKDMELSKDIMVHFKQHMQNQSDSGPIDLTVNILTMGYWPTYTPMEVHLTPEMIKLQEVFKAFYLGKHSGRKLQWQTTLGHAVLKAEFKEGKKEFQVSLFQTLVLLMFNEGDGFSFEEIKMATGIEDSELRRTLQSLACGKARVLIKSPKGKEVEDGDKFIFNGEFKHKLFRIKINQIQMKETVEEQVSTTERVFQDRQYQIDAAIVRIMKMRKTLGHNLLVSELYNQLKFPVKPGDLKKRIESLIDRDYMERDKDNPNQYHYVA
E3 (CUL4), sequence (P62877 whole entry partner): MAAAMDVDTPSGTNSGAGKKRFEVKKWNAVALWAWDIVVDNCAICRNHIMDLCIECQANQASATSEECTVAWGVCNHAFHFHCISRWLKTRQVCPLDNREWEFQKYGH
Method: (§3) The reaction was incubated for 5 min at 37° C. […] The reaction was incubated for 5 min at room temperature. In the second step (chase), the completed Cdc34b-Ub thiol ester reaction mixture was combined with one third of the completed mono-ubiquitination mixture. The final volume was adjusted to 10 μl with a mix that contained 50 mM Tris-HCl (pH 7.4), 0.5 mM DTT, 0.1 mg/ml of BSA, 5 mM MgCl2, and 2 mM ATP. Compounds were added where indicated. The chase reaction was incubated for 10 min at 37° C. The reaction products were separated by 4-20% SDS-polyacrylamide gel electrophoresis. The reaction scheme was identical to the one described above for FIGS. 12A-B. […] The reaction products, separated by SDS-PAGE, were visualized and analyzed by phospho-imaging using Typhoon 9500 scanner.

[4] = tested on: cancer cells; assay: Apoptosis, Annexin V flow cytometry; type: cell-based; conditions: for induction of apoptosis: at 30 μM
Method: Cells (5×10^4) were seeded 24 hours before compound treatment. Compound was added to the culture media and cells were cultured with the compound for 48 hours. The treated cells were then transferred into 5 ml flow cytometry tubes and the well was washed once with PBS to collect any remaining cells. The cells were then pelleted at 500×g for 5 min with a Beckman CS-6KR centrifuge at 4° C. After removal of supernatant, the cells pellet was washed with Annexin V binding buffer (10 mM Hepes-NaOH, pH 7.4, 150 mM NaCl, 5 mM KCl, 1 mM MgCl2, and 1.8 mM CaCl2). Cells were pelleted once again and incubated in the dark with Annexin V-FITC (2 μg/ml) in binding buffer for 5 min then analyzed using LSRFortessa flow cytometer (BD).

[5] = target: ROC1-CUL4A (Homo sapiens (Human), UniProt Q13619); assay: 32P-Ub chain elongation by ROC1-CUL4A; type: biochemical; set-up: concentration or dose not given beside the values; conditions: relative to KH-4-43
ROC1-CUL4A, sequence (Q13619 39-759): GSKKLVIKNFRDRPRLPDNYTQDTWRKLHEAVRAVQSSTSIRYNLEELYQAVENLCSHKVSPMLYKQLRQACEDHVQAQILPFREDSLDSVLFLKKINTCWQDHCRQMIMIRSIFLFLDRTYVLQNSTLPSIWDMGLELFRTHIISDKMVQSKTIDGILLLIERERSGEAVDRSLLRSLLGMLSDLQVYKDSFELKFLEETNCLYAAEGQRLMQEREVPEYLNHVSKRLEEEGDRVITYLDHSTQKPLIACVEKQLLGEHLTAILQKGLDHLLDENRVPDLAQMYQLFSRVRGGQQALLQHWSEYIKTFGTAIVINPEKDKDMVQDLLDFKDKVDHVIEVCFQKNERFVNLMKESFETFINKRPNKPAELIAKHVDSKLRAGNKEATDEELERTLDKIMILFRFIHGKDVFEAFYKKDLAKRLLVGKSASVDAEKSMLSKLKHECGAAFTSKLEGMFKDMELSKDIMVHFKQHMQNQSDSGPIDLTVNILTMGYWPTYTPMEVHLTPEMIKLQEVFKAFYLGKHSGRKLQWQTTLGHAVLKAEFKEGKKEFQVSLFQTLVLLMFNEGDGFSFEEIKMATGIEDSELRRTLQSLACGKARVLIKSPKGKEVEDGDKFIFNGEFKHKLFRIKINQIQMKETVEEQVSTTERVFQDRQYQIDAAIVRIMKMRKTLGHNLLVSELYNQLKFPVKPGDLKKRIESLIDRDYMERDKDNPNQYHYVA
ROC1-CUL4A, sequence (P62877 15-108 partner): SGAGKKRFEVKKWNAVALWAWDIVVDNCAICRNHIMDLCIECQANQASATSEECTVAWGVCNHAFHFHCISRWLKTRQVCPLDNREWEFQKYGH
Method: as §3

[6] = target: E3 (CUL1) (Homo sapiens (Human), UniProt Q13616); assay: E3 (CUL1) inhibition (Table 1); type: biochemical
E3 (CUL1), sequence (Q13616 whole entry): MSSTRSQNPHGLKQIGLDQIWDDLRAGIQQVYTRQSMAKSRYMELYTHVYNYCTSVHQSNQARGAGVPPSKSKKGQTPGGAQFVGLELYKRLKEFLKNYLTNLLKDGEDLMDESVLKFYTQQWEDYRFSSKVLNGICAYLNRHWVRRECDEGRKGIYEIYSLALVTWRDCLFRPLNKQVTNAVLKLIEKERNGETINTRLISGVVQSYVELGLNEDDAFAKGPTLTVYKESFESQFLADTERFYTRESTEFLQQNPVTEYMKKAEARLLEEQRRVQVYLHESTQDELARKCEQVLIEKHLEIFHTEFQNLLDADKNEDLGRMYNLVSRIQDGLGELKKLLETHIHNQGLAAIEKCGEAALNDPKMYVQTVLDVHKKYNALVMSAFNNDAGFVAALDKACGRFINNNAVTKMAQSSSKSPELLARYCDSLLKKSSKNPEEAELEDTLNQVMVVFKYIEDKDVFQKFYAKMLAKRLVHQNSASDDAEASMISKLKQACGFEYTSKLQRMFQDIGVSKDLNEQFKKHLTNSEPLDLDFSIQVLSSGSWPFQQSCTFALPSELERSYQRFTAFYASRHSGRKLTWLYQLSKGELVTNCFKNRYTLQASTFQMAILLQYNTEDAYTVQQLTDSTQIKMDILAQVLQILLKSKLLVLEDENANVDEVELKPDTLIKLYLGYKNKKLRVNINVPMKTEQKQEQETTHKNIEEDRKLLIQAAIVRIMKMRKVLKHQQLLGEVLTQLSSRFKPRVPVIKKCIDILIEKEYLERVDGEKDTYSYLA
E3 (CUL1), sequence (P62877 whole entry partner): as the sequence (P62877 whole entry partner) above
Method: as §1

[7] = target: ROC1-CUL4A (full length) (Homo sapiens (Human), UniProt Q13619); assay: Ligand binding by MST; conditions: for Kd: read-out: E3 binding ROC1-CUL4A Kd
ROC1-CUL4A (full length), sequence (Q13619 39-759): as the sequence (Q13619 39-759) above
ROC1-CUL4A (full length), sequence (P62877 15-108 partner): as the sequence (P62877 15-108 partner) above
Method: as §2

[8] = tested on: MV4-11 tumors; assay: AML MV4-11 subcutaneous xenograft; conditions: G5, 3 mg/kg, QD, PO
[9] = Table 9, read-out: IC50 (FRET CUL1 assay)
[10] = Table 9, read-out: E3 Binding Kd (MST with CUL1 CTD)
[11] = Table 5, read-out: E3 inhibition IC50
[12] = Table 5, MST, read-out: E3 binding Kd

T1 sequence (Q13616 411-776): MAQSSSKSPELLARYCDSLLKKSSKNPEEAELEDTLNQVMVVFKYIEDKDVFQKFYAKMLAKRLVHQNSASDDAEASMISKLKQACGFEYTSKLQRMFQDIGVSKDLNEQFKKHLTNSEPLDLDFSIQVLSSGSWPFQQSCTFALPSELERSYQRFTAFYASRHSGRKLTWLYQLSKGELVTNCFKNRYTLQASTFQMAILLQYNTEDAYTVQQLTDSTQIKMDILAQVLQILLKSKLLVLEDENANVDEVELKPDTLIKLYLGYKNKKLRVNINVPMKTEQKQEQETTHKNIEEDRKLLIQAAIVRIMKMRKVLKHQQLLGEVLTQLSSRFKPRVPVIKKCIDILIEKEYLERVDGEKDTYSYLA
T1 sequence (P62877 whole entry partner): as the sequence (P62877 whole entry partner) above

## O=c1c(Oc2ccc(Br)cc2)c(C(F)(F)F)oc2c(O)c(O)ccc12
[1]; [9]
  IC50: 3.5 µM
[2]; [10]
  Kd: 1.42 ± 0.26 µM

## O=c1c(Oc2cccc(Br)c2)c(C(F)(F)F)oc2c(O)c(O)ccc12
[1]; [9]
  IC50: 2.4 µM
[2]; [10]
  Kd: 1.9 ± 0.28 µM

## O=c1c(Oc2ccccc2Br)c(C(F)(F)F)oc2c(O)c(O)ccc12
[1]; [9]
  IC50: 2.7 µM
[2]; [10]
  Kd: 1.95 ± 0.44 µM

## O=c1c(Oc2ccc(Br)cc2)c(C(F)(F)F)oc2c(O)c(O)c(Br)cc12
[1]; [9]
  IC50: 8.3 µM
[2]; [10]
  Kd: 1.19 ± 0.36 µM

## Cc1oc2c(O)c(O)ccc2c(=O)c1Oc1ccccc1 [#33-2, 7,8-dihydroxy-2-methyl-3-phenoxy-4H-chromen-4-one]
[1]
  drop in IC50 relative to #33: 7 fold
[1]; [11]
  IC50: 8.9 µM
[2]
  reduction of binding Kd relative to #33: 8 fold
[2]; [12]
  Kd: 15 µM

## COc1ccc2c(=O)c(Oc3ccccc3)c(C)oc2c1OC [#33-3, 7,8-dimethoxy-2-methyl-3-phenoxy-4H-chromen-4-one]
[1]; Table 5
  E3 inhibition IC50: No inhibition
[1]
  E3 inhibition: No inhibition
[2]; [12]
  Kd: > 500 µM

## O=c1c(Oc2ccccc2)c(C(F)(F)F)oc2c3c(ccc12)OCCO3 [#33-5, 8-phenoxy-9-(trifluoromethyl)-2,3-dihydro-7H-[1,4]dioxino[2,3-h]chromen-7-one]
[1]; Table 5
  E3 inhibition IC50: No inhibition
[1]
  E3 inhibition: No inhibition
[2]; [12]
  Kd: 48 µM

## O=c1c(Oc2ccccc2)c(C(F)(F)F)oc2cc(O)ccc12 [#33-7, 7-hydroxy-3-phenoxy-2-(trifluoromethyl)-4H-chromen-4-one]
[1]; Table 5
  E3 inhibition IC50: No inhibition
[1]
  E3 inhibition: No inhibition
[2]
  reduction of binding Kd relative to #33: > 30 fold
[2]; [12]
  Kd: 57 µM

## O=c1c(Oc2ccccc2)c(C(F)(F)F)oc2c3c(ccc12)OCO3 [Compound 33-4, 7-phenoxy-8-(trifluoromethyl)-6H-[1,3]dioxolo[4,5-h]chromen-6-one]
[1]; [11]
  IC50: 80 µM
[2]; [12]
  Kd: 19 µM

## COc1ccc2c(=O)c(-c3cnn(-c4ccc(F)cc4)c3)c(C(F)(F)F)oc2c1OC [KH-3-141]
[3]
  E3 (CUL4) Inhibition EC50: Inactive
[4]; Table 1
  Apoptosis EC50: Inactive
[4]; Table 6
  Apoptosis EC50: Inactive
[4]
  induction of apoptosis: unable to induce any detectable level of apoptosis
[5]
  E3 CRL4 Relative Inhibition: 0%
[6]
  E3 (CUL1) Inhibition EC50: Inactive
[7]
  E3 binding ROC1-CUL4A Kd: No detectable binding

## COc1c(O)ccc2c(=O)c(-c3cnn(-c4ccccc4)c3)c(C(F)(F)F)oc12 [KH-4-119]
[3]
  E3 (CUL4) Inhibition EC50: Inactive
[4]; Table 1
  Apoptosis EC50: Inactive
[4]; Table 6
  Apoptosis EC50: Inactive
[4]
  induction of apoptosis: unable to induce any detectable level of apoptosis
[5]
  E3 CRL4 Relative Inhibition: 13%
[7]
  E3 binding ROC1-CUL4A Kd: no detectable binding activity

## CCCCn1cc(-c2c(C(F)(F)F)oc3c(O)c(O)ccc3c2=O)cn1 [MM-007]
[4]; Table 6
  EC50: 28 µM
[5]
  E3 CRL4 Relative Inhibition: 2%
[7]
  Kd: 38 µM

## CCCn1cc(-c2c(C(F)(F)F)oc3c(O)c(O)ccc3c2=O)cn1 [MM-008]
[4]; Table 6
  EC50: 38 µM
[5]
  E3 CRL4 Relative Inhibition: 0%
[7]
  Kd: 26.4 µM

## CCn1cc(-c2c(C(F)(F)F)oc3c(O)c(O)ccc3c2=O)cn1 [MM-009]
[4]; Table 6
  EC50: 66 µM
[5]
  E3 CRL4 Relative Inhibition: 0%
[7]
  Kd: > 400 µM

## CNC(=O)c1cc(Oc2ccc(NC(=O)Nc3ccc(Cl)c(C(F)(F)F)c3)cc2)ccn1 [Sorafenib, reference compound]
[8]
  tumor inhibition value: 46.02%

## O=c1c(Oc2ccccc2)c(C(F)(F)F)oc2c(O)c(O)c(Br)cc12 [[drawing 256]]
[1]; [9]
  IC50: 3.3 µM

## O=c1c(Oc2ccccc2)c(C(F)(F)F)oc2c(O)c(O)c(Br)cc12 [drawing 256]
[1]; [9]
  IC50: 3.1 µM
[2]; [10]
  Kd: 1.89 ± 0.96 µM
